We go through 1 molecule from article PMC3567921 (Clinical cancer research : an official journal of the …, 2012).

A value given as a limit tells only on which side of the number the result lay.

This experiment deals with T1, Axl (Homo sapiens, UniProt P30530).
T1 sequence (P30530 26-894): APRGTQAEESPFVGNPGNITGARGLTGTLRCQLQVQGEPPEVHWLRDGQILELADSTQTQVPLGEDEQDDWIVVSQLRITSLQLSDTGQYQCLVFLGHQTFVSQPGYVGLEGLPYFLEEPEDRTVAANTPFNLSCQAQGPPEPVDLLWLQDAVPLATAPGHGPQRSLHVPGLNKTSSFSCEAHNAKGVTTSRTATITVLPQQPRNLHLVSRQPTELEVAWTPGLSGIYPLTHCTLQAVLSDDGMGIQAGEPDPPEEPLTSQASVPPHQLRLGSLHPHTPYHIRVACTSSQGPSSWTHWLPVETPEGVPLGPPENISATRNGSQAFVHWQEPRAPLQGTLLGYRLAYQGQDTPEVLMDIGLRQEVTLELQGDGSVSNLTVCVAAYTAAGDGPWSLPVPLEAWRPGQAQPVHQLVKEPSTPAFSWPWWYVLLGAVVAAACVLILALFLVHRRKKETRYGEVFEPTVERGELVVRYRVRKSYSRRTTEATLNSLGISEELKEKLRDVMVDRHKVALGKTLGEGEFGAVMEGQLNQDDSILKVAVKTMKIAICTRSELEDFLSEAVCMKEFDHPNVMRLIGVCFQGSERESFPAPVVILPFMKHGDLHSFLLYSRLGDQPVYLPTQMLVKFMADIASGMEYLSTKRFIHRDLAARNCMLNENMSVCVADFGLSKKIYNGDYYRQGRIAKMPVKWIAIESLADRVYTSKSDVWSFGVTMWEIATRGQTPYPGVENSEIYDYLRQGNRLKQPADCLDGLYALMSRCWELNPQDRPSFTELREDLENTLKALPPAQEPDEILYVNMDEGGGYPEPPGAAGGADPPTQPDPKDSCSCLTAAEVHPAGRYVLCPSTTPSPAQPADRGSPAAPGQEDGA
As to the kind of experiment: anti-FLAG immunoprecipitation, phosphotyrosine Western blot densitometry. It counts as cell-based.

As to `Cc1c[nH]c2nc(Nc3ccc(N4CCN(C)CC4)c(F)c3)nc(-c3cccc(CC#N)c3)c12` [SGI-7079], the EC50 is under 100 nM.
